In patent US20230241155A1, “METHODS AND MEANS FOR MODIFYING HEMODYNAMICS IN INFECTIONS” (Biotempt B.V., priority 2020, published 2023):
“Also recorded” adds a separate entry of the source. Where two headings read alike, the source gives them in different places. Peptide text beside a SMILES is read from it.

Columns and labels:
[1] = Solubility / aggregation screen of AQGV peptide salts; conditions: for aggregation in aqueous solution: in relation to peptide-acetate aggregation
Description: FIG. 7: Overview of solubility experiments with results in Table 1.

[2] = Adverse events (AEs) in the EASI-study (phase II, CABG patients); type: in vivo, human
Description: A prospective, randomized, double-blind, placebo-controlled study was performed in which 180 elective patients undergoing on-pump coronary artery bypass grafting were enrolled. Patients were randomized in a 1:1 ratio and received either EA-230, 90 mg/kg/hour, or a placebo. These were infused at the start of the surgical procedure until the end of the use of the cardiopulmonary bypass. The main focus in this first-in-patient study was on safety and tolerability of EA-230. The primary efficacy endpoint was the modulation of the inflammatory response by EA-230. A key secondary endpoint was the effect of EA-230 on renal function.
The present study was a single-center, prospective, double-blind, placebo-controlled, randomized, single-dose phase II study. It has an adaptive design to evaluate the safety and immunomodulatory effects of EA-230 in patients undergoing for coronary artery bypass grafting (CABG). 180 eligible patients were included and were randomized to receive either active or placebo treatment in a 1:1 ratio. This was a first-in-patient safety and tolerability study, of which the primary efficacy objective was to assess the immunomodulatory effects of EA-230. The key-secondary efficacy endpoint was the effect of EA-230 on renal function. This study was described in accordance with the Standard Protocol Items: Recommendations for Interventional Trial (SPIRIT) guidelines, and registered at clinicaltrials.gov under number NCT03145220.
Intravenous infusion of EA-230, 90 mg/kg/hour, or placebo, was initiated at the moment of first surgical incision using an automated infusion pump. Infusion rate was set at 250 mL/hour, and infusion was continued until cessation of the CPB, or after 4 hours of continuous infusion, whichever comes first.
All AEs were judged by the investigators with regard to severity (“mild, moderate, or severe”) according to Common Terminology Criteria for Adverse Events guidelines 4.030 and their perceived relation to the study drug (“definitely, probably, possibly, or unrelated/unlikely to be related”). SAEs or SUSARs include death, life-threatening disease, persistent and/or significant disability and/or incapacity, and hospitalization and/or prolongation of inpatient hospitalization.

## AQGV-citrate
[1]
  behaviour of highly concentrated solution: does not crystallize or aggregate but tend to form a highly viscous solution
  solubility (aggregation point): Higher solubility
  aggregation in aqueous solution: (strongly) reduced aggregation

## CC(C)[C@H](NC(=O)CNC(=O)[C@H](CCC(N)=O)NC(=O)[C@H](C)N)C(=O)O [EA-230, AQGV] (H-AQGV-OH)
[2]; EA-230 group N = 91
  AE of mild intensity, % of patients: (83.5) %
  AE of mild intensity, e = Number of events: 188
  AE of mild intensity, n = Number of patients experiencing the event: 76
  AE of moderate intensity, % of patients: (24.2) %
  AE of moderate intensity, e = Number of events: 23
  AE of moderate intensity, n = Number of patients experiencing the event: 22
  AE of severe intensity, % of patients: (5.5) %
  AE of severe intensity, e = Number of events: 6
  AE of severe intensity, n = Number of patients experiencing the event: 5
  Anemia, % of patients: (5.5) %
  Anemia, e = Number of events: 5
  Anemia, n = Number of patients experiencing the event: 5
  Any AE, % of patients: (85.7) %
  Any AE, n = Number of patients experiencing the event: 78
  Any SAE, % of patients: (13.2) %
  Any SAE, e = Number of events: 23
  Any SAE, n = Number of patients experiencing the event: 12
  Any SUSAR, % of patients: (0) %
  Any SUSAR, e = Number of events: 0
  Any SUSAR, n = Number of patients experiencing the event: 0
  Blood and lymphatic system disorders Overall, % of patients: (5.5) %
  Blood and lymphatic system disorders Overall, e = Number of events: 6
  Blood and lymphatic system disorders Overall, n = Number of patients experiencing the event: 5
  Delirium, % of patients: (5.5) %
  Delirium, e = Number of events: 5
  Delirium, n = Number of patients experiencing the event: 5
  Fluid retention, % of patients: (2.2) %
  Fluid retention, e = Number of events: 2
  Fluid retention, n = Number of patients experiencing the event: 2
  Gastrointestinal disorders Overall, % of patients: (23.1) %
  Gastrointestinal disorders Overall, e = Number of events: 27
  Gastrointestinal disorders Overall, n = Number of patients experiencing the event: 21
  Hemorrhagic diathesis, % of patients: (1.1) %
  Hemorrhagic diathesis, e = Number of events: 1
  Hemorrhagic diathesis, n = Number of patients experiencing the event: 1
  Infections and infestations Overall, % of patients: (14.3) %
  Infections and infestations Overall, e = Number of events: 15
  Infections and infestations Overall, n = Number of patients experiencing the event: 13
  Metabolism and nutrition disorders Overall, % of patients: (11) %
  Metabolism and nutrition disorders Overall, e = Number of events: 10
  Metabolism and nutrition disorders Overall, n = Number of patients experiencing the event: 10
  Nausea, % of patients: (16.5) %
  Nausea, e = Number of events: 15
  Nausea, n = Number of patients experiencing the event: 15
  Psychiatric disorders Overall, % of patients: (9.9) %
  Psychiatric disorders Overall, e = Number of events: 9
  Psychiatric disorders Overall, n = Number of patients experiencing the event: 9
  Renal and urinary disorders Overall, % of patients: (4.4) %
  Renal and urinary disorders Overall, e = Number of events: 4
  Renal and urinary disorders Overall, n = Number of patients experiencing the event: 4
[2]; clinical trials / throughout surgery
  safety and tolerability: safe and well tolerated; also recorded: found to be safe

## O=C(O)/C=C\C(=O)O [maleic acid]
[1]
  aggregation in aqueous solution: aggravated aggregation
[1]; solubility in 0.9% NaCl, compared to AQGV-Ac
  solubility (aggregation point): lower solubility

## Nc1ncnc2c1ncn2[C@@H]1O[C@H](CO)[C@@H](O)[C@H]1O [adenosine]
[1]
  solubility (aggregation point): did not provide solubility
  aggregation in aqueous solution: aggravated aggregation

## Nc1ncnc2c1ncn2[C@@H]1O[C@H](COP(=O)(O)O)[C@@H](O)[C@H]1O [adenosine-monophosphate]
[1]
  solubility (aggregation point): did not provide solubility
  aggregation in aqueous solution: aggravated aggregation
